# Data as given in patent US11046699B2, “Pyrazolo-pyrimidin-amino-cycloalkyl compounds and their therapeutic uses” (RAPT THERAPEUTICS, INC., priority 2018, dated 2021).
# Biological target: GCN2 (Homo sapiens, UniProt Q9P2K8)
# Assay: GCN2 enzymatic endpoint assay: phosphorylation of GFP-eIF2α measured by TR-FRET (Lanthascreen)
# Assay type: biochemical
# Details: GCN2 biochemical IC50; 4 nM GCN2, 2 μM ATP, 80 nM GFP-eIF2α, 90 min RT; read-out: GCN2 activity
# In short: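 Endpoint GCN2 reaction with low ATP (2 μM) and 80 nM GFP-eIF2α, room temperature, 90 minutes. Detection mix with EDTA and Tb-labelled antibody; 520 nm/495 nm emission ratio reported.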
# Chain of GCN2 (Q9P2K8 whole entry): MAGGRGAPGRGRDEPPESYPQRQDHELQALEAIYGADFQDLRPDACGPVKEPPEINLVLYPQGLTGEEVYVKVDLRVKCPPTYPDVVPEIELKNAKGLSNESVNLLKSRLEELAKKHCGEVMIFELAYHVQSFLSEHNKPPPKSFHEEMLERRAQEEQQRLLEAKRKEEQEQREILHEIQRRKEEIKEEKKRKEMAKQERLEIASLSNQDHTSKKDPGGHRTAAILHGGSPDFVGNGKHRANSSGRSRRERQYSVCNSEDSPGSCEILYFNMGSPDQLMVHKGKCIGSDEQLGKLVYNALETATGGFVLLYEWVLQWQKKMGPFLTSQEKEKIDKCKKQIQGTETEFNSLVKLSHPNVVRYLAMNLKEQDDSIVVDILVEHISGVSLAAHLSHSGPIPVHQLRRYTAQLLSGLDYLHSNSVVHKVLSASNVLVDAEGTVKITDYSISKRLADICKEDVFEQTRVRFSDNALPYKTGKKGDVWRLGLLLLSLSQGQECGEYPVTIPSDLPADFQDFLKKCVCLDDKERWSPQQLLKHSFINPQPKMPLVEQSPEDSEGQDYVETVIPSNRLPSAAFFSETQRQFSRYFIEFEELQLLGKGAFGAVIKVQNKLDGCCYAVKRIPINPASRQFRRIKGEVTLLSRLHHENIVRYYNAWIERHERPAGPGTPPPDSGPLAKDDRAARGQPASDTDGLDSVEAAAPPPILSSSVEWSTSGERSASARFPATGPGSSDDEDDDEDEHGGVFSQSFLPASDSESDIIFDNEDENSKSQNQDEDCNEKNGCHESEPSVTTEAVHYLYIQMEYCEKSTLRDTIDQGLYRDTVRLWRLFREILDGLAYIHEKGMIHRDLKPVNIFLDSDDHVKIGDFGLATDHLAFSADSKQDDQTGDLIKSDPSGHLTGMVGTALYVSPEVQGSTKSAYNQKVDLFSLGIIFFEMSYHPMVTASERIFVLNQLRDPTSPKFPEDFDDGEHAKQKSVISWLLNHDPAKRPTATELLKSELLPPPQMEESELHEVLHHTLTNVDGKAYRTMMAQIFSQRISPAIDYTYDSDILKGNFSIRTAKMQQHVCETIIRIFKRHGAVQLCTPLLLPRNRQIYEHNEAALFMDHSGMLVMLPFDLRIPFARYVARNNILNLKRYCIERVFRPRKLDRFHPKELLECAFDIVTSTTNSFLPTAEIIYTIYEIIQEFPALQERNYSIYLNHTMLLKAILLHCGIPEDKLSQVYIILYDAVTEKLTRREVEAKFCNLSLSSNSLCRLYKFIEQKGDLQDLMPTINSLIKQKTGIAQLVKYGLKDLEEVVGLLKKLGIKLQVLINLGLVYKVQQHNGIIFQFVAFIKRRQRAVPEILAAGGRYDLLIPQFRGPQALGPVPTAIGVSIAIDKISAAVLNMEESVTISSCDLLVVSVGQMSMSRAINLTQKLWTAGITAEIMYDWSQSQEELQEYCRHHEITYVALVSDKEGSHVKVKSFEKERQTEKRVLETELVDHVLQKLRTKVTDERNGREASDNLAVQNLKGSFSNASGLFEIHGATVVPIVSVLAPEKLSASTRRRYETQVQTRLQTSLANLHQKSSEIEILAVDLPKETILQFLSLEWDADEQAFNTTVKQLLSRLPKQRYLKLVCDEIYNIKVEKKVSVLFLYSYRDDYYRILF
row,SMILES,IC50
1,"CNC(=O)[C@]1(C)CC[C@@H](Nc2ncc3c(Br)nn(-c4ccc5c(c4)CN(S(C)(=O)=O)C5)c3n2)C1 [Example 61, (1R,3R)-3-((3-bromo-1-(2-(methylsulfonyl)isoindolin-5-yl)-1H-pyrazolo[3,4-d]pyrimidin-6-yl)amino)-N,1-dimethylcyclopentane-1-carboxamide]",25 to 200 nM
2,"CNC(=O)[C@]1(C)CC[C@@H](Nc2ncc3c(Br)nn(-c4cc(CCN)c5ncccc5c4)c3n2)C1 [Example 32, (1R,3R)-3-((1-(8-(2-aminoethyl)quinolin-6-yl)-3-bromo-1H-pyrazolo[3,4-d]pyrimidin-6-yl)amino)-N,1-dimethylcyclopentane-1-carboxamide; 2,2,2-trifluoroacetic acid]",< 25 nM
3,"CNC(=O)[C@]1(C)CC[C@@H](Nc2ncc3c(Br)nn(-c4ccc(-c5nnc(C)s5)c(CCC#N)c4)c3n2)C1 [Example 49, (1R,3R)-3-((3-bromo-1-(3-(2-cyanoethyl)-4-(5-methyl-1,3,4-thiadiazol-2-yl)phenyl)-1H-pyrazolo[3,4-d]pyrimidin-6-yl)amino)-N,1-dimethylcyclopentane-1-carboxamide]",25 to 200 nM

# Same assay, conditions: tested as described in Example 77; compound and/or hydrochloride, dihydrochloride or trifluoroacetic acid salt; read-out: IC 50 Activity
row,SMILES,IC50
1,"CS(=O)(=O)CCNC(=O)[C@@H]1CC[C@@H](Nc2ncc3c(Br)nn(-c4cc(C(F)F)c5ncccc5c4)c3n2)C1 [(1R,3R)-3-((3-bromo-1-(8-(difluoromethyl)quinolin-6-yl)-1H-pyrazolo[3,4-d]pyrimidin-6-yl)amino)-N-(2-(methylsulfonyl)ethyl)cyclo-pentane-1-carboxamide]",200 to 500 nM
2,"Cc1cn2c(n1)CN(C(=O)[C@@H]1CC[C@@H](Nc3ncc4c(Br)nn(-c5cc(F)c6ncccc6c5)c4n3)C1)CC2 [[(1R,3R)-3-[[3-bromo-1-(8-fluoro-6-quinolyl)pyrazolo[3,4-d]pyrimidin-6-yl]amino]cyclo-pentyl]-(2-methyl-6,8-dihydro-5H-imidazo [1,2-a]pyrazin-7-yl)methanone]",25 to 200 nM
3,"CNC(=O)CC1CC(Nc2ncc3c(Br)nn(-c4cc(CCN)c5ccccc5c4)c3n2)C1 (stereo not drawn) [2-[3-[[1-[4-(2-aminoethyl)-2-naphthyl]-3-bromo-pyrazolo[3,4-d]pyrimidin-6-yl]amino]cyclobutyl]-N-methyl-acetamide; 2,2,2-trifluoroacetic acid]",25 to 200 nM
4,"CNC(=O)[C@]1(COC)CC[C@@H](Nc2ncc3c(Br)nn(-c4cc(F)c5ncccc5c4)c3n2)C1 [(1R,3R)-3-[[3-bromo-1-(8-fluoro-6-quinolyl)pyrazolo[3,4-d]pyrimidin-6-yl]amino]-1-(methoxymethyl)-N-methyl-cyclopentane-carboxamide]",< 25 nM
5,"Cc1nnc(-c2ccc(-n3nc(Br)c4cnc(N[C@@H]5CC[C@@H](NC(=O)C6CC(C)(O)C6)C5)nc43)cc2)s1 (stereo partly drawn) [N-[(1R,3R)-3-[[3-bromo-1-[4-(5-methyl-1,3,4-thiadiazol-2-yl)phenyl]pyrazolo [3,4-d]pyrimidin-6-yl]amino]cyclopentyl]-3-hydroxy-3-methyl-cyclobutane-carboxamide]",25 to 200 nM
6,"CNC(=O)[C@]1(C)CC[C@@H](Nc2ncc3c(Br)nn(-c4cc(C)c(C#N)c(C)c4)c3n2)C1 [(1R,3R)-3-[[3-bromo-1-(4-cyano-3,5-dimethyl-phenyl)pyrazolo[3,4-d]pyrimidin-6-yl]amino]-N,1-dimethyl-cyclopentanecarboxamide]",25 to 200 nM
7,"CNC(=O)[C@]1(C)CC[C@@H](Nc2ncc3c(Br)nn(-c4cc(C5CCNC5)c5ncccc5c4)c3n2)C1 (stereo partly drawn) [(1R,3R)-3-[[3-bromo-1-(8-pyrrolidin-3-yl-6-quinolyl)pyrazolo[3,4-d]pyrimidin-6-yl]amino]-N,1-dimethyl-cyclopentane-carboxamide]",< 25 nM
8,"O=C(NCCc1cnc[nH]1)[C@@H]1CC[C@@H](Nc2ncc3c(Br)nn(-c4ccc5ncccc5c4)c3n2)C1 [(1R,3R)-N-(2-(1H-imidazol-5-yl)ethyl)-3-((3-bromo-1-(quinolin-6-yl)-1H-pyrazolo [3,4-d]pyrimidin-6-yl)amino)cyclopentane-1-carboxamide]",200 to 500 nM
9,"CNC(=O)[C@]1(C)CC[C@@H](Nc2ncc3c(Br)nn(-c4ccc(-c5nnc(COC)s5)cc4)c3n2)C1 [(1R,3R)-3-[[3-bromo-1-[4-[5-(methoxy-methyl)-1,3,4-thiadiazol-2-yl]phenyl]pyrazolo[3,4-d]pyrimidin-6-yl]amino]-N,1-dimethyl-cyclopentanecarboxamide]",25 to 200 nM
10,"CNC(=O)[C@]1(C)CC[C@@H](Nc2ncc3c(Br)nn(-c4cc(Cl)cc(OCC(C)O)c4)c3n2)C1 (stereo partly drawn) [(1R,3R)-3-[[3-bromo-1-[3-chloro-5-(2-hydroxypropoxy)phenyl]pyrazolo[3,4-d]pyrimidin-6-yl]amino]-N,1-dimethyl-cyclopentanecarboxamide]",25 to 200 nM
11,"CNC(=O)[C@]1(C)CC[C@@H](Nc2ncc3c(Br)nn(-c4ccc5c(c4)CCN(C(=O)C4CNC4)C5)c3n2)C1 [(1R,3R)-3-[[1-[2-(azetidine-3-carbonyl)-3,4-dihydro-1H-isoquinolin-6-yl]-3-bromo-pyrazolo[3,4-d]pyrimidin-6-yl]amino]-N,1-dimethyl-cyclopentanecarboxamide]",25 to 200 nM
12,"CNC(=O)[C@]1(C)CC[C@@H](Nc2ncc3c(Br)nn(-c4ccc(-c5ncco5)c(C(C)(C)C#N)c4)c3n2)C1 [(1R,3R)-3-[[3-bromo-1-[3-(1-cyano-1-methyl-ethyl)-4-oxazol-2-yl-phenyl]pyrazolo[3,4-d]pyrimidin-6-yl]amino]-N,1-dimethyl-cyclopentanecarboxamide]",25 to 200 nM
13,CNc1ncc2cc(-n3nc(Br)c4cnc(N[C@@H]5CCC(C)(O)C5)nc43)ccc2n1 (stereo partly drawn),25 to 200 nM
14,"CNC(=O)[C@]1(C)CC[C@@H](Nc2ncc3c(Br)nn(-c4ccc(-c5nnc(C)s5)c(CCCN)c4)c3n2)C1 [(1R,3R)-3-[[1-[3-(3-aminopropyl)-4-(5-methyl-1,3,4-thiadiazol-2-yl)phenyl]-3-bromopyrazolo[3,4-d]pyrimidin-6-yl]amino]-N,1-dimethyl-cyclopentanecarboxamide]",25 to 200 nM
15,"CNC(=O)[C@]1(C)CC[C@@H](Nc2ncc3c(Br)nn(-c4cccc(CCS(C)(=O)=O)c4)c3n2)C1 [(1R,3R)-3-[[3-bromo-1-[3-(2-methyl-sulfonylethyl)phenyl]pyrazolo[3,4-d]pyrimidin-6-yl]amino]-N,1-dimethyl-cyclopentanecarboxamide]",25 to 200 nM
16,"CNC(=O)[C@]1(C)CC[C@@H](Nc2ncc3c(Br)nn(-c4cc(CCCOC)c5c(c4)CCC(=O)N5C)c3n2)C1 [(1R,3R)-3-[[3-bromo-1-[8-(3-methoxy-propyl)-1-methyl-2-oxo-3,4-dihydro-quinolin-6-yl]pyrazolo[3,4-d]pyrimidin-6-yl]amino]-N,1-dimethyl-cyclopentane-carboxamide; 2,2,2-trifluoroacetic acid]",25 to 200 nM
17,"O=C1CN(C(=O)[C@@H]2CC[C@@H](Nc3ncc4c(Br)nn(-c5cc(F)c6ncccc6c5)c4n3)C2)CN1CC1CC1 [1-[(1R,3R)-3-[[3-bromo-1-(8-fluoro-6-quinolyl)pyrazolo[3,4-d]pyrimidin-6-yl]amino]cyclopentanecarbonyl]-3-(cyclopropylmethyl)imidazolidin-4-one]",25 to 200 nM
18,"O=C(N[C@@H]1CCNC[C@@H]1F)[C@@H]1CC[C@@H](Nc2ncc3c(Br)nn(-c4cc(F)c5ncccc5c4)c3n2)C1 [(1R,3R)-3-((3-bromo-1-(8-fluoroquinolin-6-yl)-1H-pyrazolo[3,4-d]pyrimidin-6-yl)amino)-N-((3S,4R)-3-fluoropiperidin-4-yl)cyclo-pentane-1-carboxamide]",< 25 nM
